Test results published in the NIST ThermoML archive (doi:10.1016/j.fluid.2006.12.011).
Numbers after ± are expanded uncertainties.

Legend:
[1] = Liquid, Vibrating tube method
[2] = xn = mol fraction of the nth substance listed; settings: Liquid, Vibrating tube method, x2 = 0

C1CC[C@H]2CCCC[C@H]2C1 [cis-decahydronaphthalene]
mass density [kg/m3], [1]
Settings	303.15 K	323.15 K	343.15 K
100 kPa	888.5 ± 1.2	873.2 ± 1.2	857.8 ± 1.2
5000 kPa	891.4 ± 1.2	876.5 ± 1.2	861.5 ± 1.2
10000 kPa	894.4 ± 1.2	879.8 ± 1.2	865.1 ± 1.2
15000 kPa	897.3 ± 1.2	883 ± 1.2	868.6 ± 1.2
20000 kPa	899.9 ± 1.2	886 ± 1.2	871.9 ± 1.2
25000 kPa	902.8 ± 1.3	889 ± 1.3	875.1 ± 1.3
30000 kPa	905.5 ± 1.3	891.8 ± 1.3	878.3 ± 1.3
35000 kPa	908 ± 1.3	894.6 ± 1.3	881.2 ± 1.3
40000 kPa	910.6 ± 1.3	897.3 ± 1.3	884.1 ± 1.3
45000 kPa	913 ± 1.3	899.9 ± 1.3	887 ± 1.3
50000 kPa	915.3 ± 1.3	902.4 ± 1.3	889.7 ± 1.3
55000 kPa	917.6 ± 1.3	904.8 ± 1.3	892.3 ± 1.3
60000 kPa	919.9 ± 1.3	907.3 ± 1.3	894.9 ± 1.3
65000 kPa	922.1 ± 1.3	909.6 ± 1.3	897.4 ± 1.3

C1CC[C@H]2CCCC[C@@H]2C1 [trans-decahydronaphthalene]
mass density [kg/m3], [1]
Settings	303.15 K	323.15 K	343.15 K
100 kPa	862.1 ± 1	847.1 ± 1	832 ± 1
5000 kPa	865.4 ± 1	850.9 ± 1	836.2 ± 1
10000 kPa	868.7 ± 1	854.4 ± 1	840.1 ± 1
15000 kPa	871.6 ± 1	857.8 ± 1	843.9 ± 1
20000 kPa	874.6 ± 1	861 ± 1	847.4 ± 1.1
25000 kPa	877.6 ± 1.1	864.1 ± 1.1	850.8 ± 1.1
30000 kPa	880.3 ± 1.1	867.1 ± 1.1	854.1 ± 1.1
35000 kPa	882.9 ± 1.1	870 ± 1.1	857.2 ± 1.1
40000 kPa	885.6 ± 1.1	872.8 ± 1.1	860.3 ± 1.1
45000 kPa	888.2 ± 1.1	875.6 ± 1.1	863.2 ± 1.1
50000 kPa	890.6 ± 1.1	878.3 ± 1.1	866.1 ± 1.1
55000 kPa	893 ± 1.1	880.8 ± 1.1	868.8 ± 1.1
60000 kPa	895.3 ± 1.1	883.4 ± 1.1	871.5 ± 1.1
65000 kPa	897.6 ± 1.1	885.8 ± 1.1	874.2 ± 1.1

C1CC[C@H]2CCCC[C@@H]2C1 [trans-decahydronaphthalene] + C1CC[C@H]2CCCC[C@H]2C1
mass density [kg/m3], [2]
Settings	303.15 K	323.15 K	343.15 K
100 kPa	862.1 ± 1	847.1 ± 1	832 ± 1
5000 kPa	865.4 ± 1	850.9 ± 1	836.2 ± 1
10000 kPa	868.7 ± 1	854.4 ± 1	840.1 ± 1
15000 kPa	871.6 ± 1	857.8 ± 1	843.9 ± 1
20000 kPa	874.6 ± 1	861 ± 1	847.4 ± 1.1
25000 kPa	877.6 ± 1.1	864.1 ± 1.1	850.8 ± 1.1
30000 kPa	880.3 ± 1.1	867.1 ± 1.1	854.1 ± 1.1
35000 kPa	882.9 ± 1.1	870 ± 1.1	857.2 ± 1.1
40000 kPa	885.6 ± 1.1	872.8 ± 1.1	860.3 ± 1.1
45000 kPa	888.2 ± 1.1	875.6 ± 1.1	863.2 ± 1.1
50000 kPa	890.6 ± 1.1	878.3 ± 1.1	866.1 ± 1.1
55000 kPa	893 ± 1.1	880.8 ± 1.1	868.8 ± 1.1
60000 kPa	895.3 ± 1.1	883.4 ± 1.1	871.5 ± 1.1
65000 kPa	897.6 ± 1.1	885.8 ± 1.1	874.2 ± 1.1
